In general, MIC80 refers to an inhibitory concentration at the 80% level, which refers to growth in some studies and to a panel of isolates in others.

Structures are written as SMILES. Converted amounts (≈) assume the structure as drawn. Bounds are passed on as bounds.

Common to all, as to assay type: functional
Test [1] concerns Candida albicans. As to the kind of experiment: Antifungal activity against fluconazole-resistant Candida albicans clinical isolate 103 by microbroth dilution method in presence of 8 ug/ml fluconazole. (Dilution methods test growth across graded concentrations, often in twofold steps.)
Test [2] relates to Candida albicans. As to the kind of experiment: Antifungal activity against fluconazole-resistant Candida albicans clinical isolate 103 by microbroth dilution method.
The subject of test [3] is Candida albicans. As to the kind of experiment: Antifungal activity against fluconazole-resistant Candida albicans clinical isolate 103 assessed as fractional inhibitory concentration index by microbroth dilution method in presence of 8 ug/ml fluconazole.

`COc1cccc(O)c1C(=O)/C=C/c1ccccc1`: the MIC80 was 16 µg/mL in test [1] and over 64 µg/mL in test [2]. The “fractional inhibitory concentration index (FICI)” value in test [3] was 0.188.

On to `COc1cccc(O)c1C(=O)/C=C/c1ccc2c(c1)OCO2`, for which the MIC80 in test [1] is 4 µg/mL; in test [2], over 64 µg/mL. In addition, in test [3], the “fractional inhibitory concentration index (FICI)” value is recorded as 0.094.

As for `O=C(/C=C/c1ccco1)c1ccccc1O`, the MIC80 was 64 µg/mL in test [1] and over 64 µg/mL in test [2]. The “fractional inhibitory concentration index (FICI)” value in test [3] was 0.506.

For the compound `O=C(/C=C/c1cccs1)c1ccccc1O`, the MIC80 in test [1] and in test [2] was over 64 µg/mL in each case. Moreover, the “fractional inhibitory concentration index (FICI)” value in test [3] is recorded as over 1.06.

In the case of `O=c1cc(-c2ccccc2)oc2cc(O)c(O)c(O)c12` [BAICALEIN], the MIC80 in test [1] was determined as 4 µg/mL; in test [2], 32 µg/mL (≈ 118 µM). Also, in test [3], the “fractional inhibitory concentration index (FICI)” value amounted to 0.188.

`COc1ccc(/C=C/C(=O)c2ccc(O)cc2)cc1OC`: the MIC80 in test [1] and in test [2] was over 64 µg/mL each time. Also, in test [3], the “fractional inhibitory concentration index (FICI)” value was over 1.06.

Take `COc1cccc(O)c1C(=O)/C=C/c1ccco1`: the MIC80 in test [1] is 4 µg/mL; in test [2] it was over 64 µg/mL. Further, the “fractional inhibitory concentration index (FICI)” value in test [3] is 0.094.

Consider `COc1ccc(/C=C/C(=O)c2ccccc2F)cc1`, for which the MIC80 in test [1] was 64 µg/mL; in test [2], over 64 µg/mL. In test [3], the “fractional inhibitory concentration index (FICI)” value is recorded as 0.506.

`O=C(/C=C/c1ccccc1)c1cc(Br)c(O)c(Br)c1O`: the results for the MIC80 in test [1] and in test [2] were 4 µg/mL and 64 µg/mL (≈ 161 µM), respectively. The “fractional inhibitory concentration index (FICI)” value in test [3] turned out to be 0.125.

Take `O=C(/C=C/c1ccc2c(c1)OCO2)c1ccccc1Cl`: the values for the MIC80 in test [1] and in test [2] were 32 µg/mL and over 64 µg/mL, respectively. Further, the “fractional inhibitory concentration index (FICI)” value in test [3] came out at 0.315.

As to `COc1ccc(/C=C/C(=O)c2ccccc2Cl)cc1OC`, the MIC80 in test [1] and in test [2] was over 64 µg/mL throughout. Also, in test [3], the “fractional inhibitory concentration index (FICI)” value is over 1.06.

Take `COc1ccc(C(=O)/C=C/c2ccccc2)c(O)c1`: the results for the MIC80 in test [1] and in test [2] were 1 µg/mL and over 64 µg/mL, respectively.

With `COc1cccc(O)c1C(=O)/C=C/c1cccnc1`, the MIC80 was 8 µg/mL in test [1] and over 64 µg/mL in test [2]. For the same compound, the “fractional inhibitory concentration index (FICI)” value in test [3] is reported as 0.125.

For `O=C(/C=C/c1ccc(C(F)(F)F)cc1)c1ccccc1O`, the figures for the MIC80 in test [1] and in test [2] were 64 µg/mL and over 64 µg/mL, respectively. In addition, in test [3], the “fractional inhibitory concentration index (FICI)” value was found to be 0.506.

As for `COc1cccc(O)c1C(=O)/C=C/c1cccs1`, the values for the MIC80 in test [1] and in test [2] were 4 µg/mL and over 64 µg/mL, respectively. Further, in test [3], the “fractional inhibitory concentration index (FICI)” value is recorded as 0.094.

Consider `O=C(/C=C/c1ccc(CO)o1)c1ccccc1O`, for which the MIC80 in test [1] was 8 µg/mL; in test [2], over 64 µg/mL. Further, the “fractional inhibitory concentration index (FICI)” value in test [3] came to 0.125.

`COc1cc(/C=C/C(=O)c2ccccc2O)ccc1O`: the MIC80 in test [1] and in test [2] was over 64 µg/mL each time. Besides, the “fractional inhibitory concentration index (FICI)” value in test [3] is recorded as over 1.06.

Consider `O=C(/C=C/c1ccccc1)c1ccc(O)cc1` [4'-HYDROXYCHALCONE], for which the MIC80 in test [1] and in test [2] was over 64 µg/mL throughout. The “fractional inhibitory concentration index (FICI)” value in test [3] was over 1.06.

Consider `Nc1ccccc1C(=O)/C=C/c1ccco1`, for which the MIC80 in test [1] and in test [2] was over 64 µg/mL in each case. Further, the “fractional inhibitory concentration index (FICI)” value in test [3] is over 1.06.

`COc1ccc(/C=C/C(=O)c2ccccc2N)cc1OC`: the MIC80 in test [1] was 32 µg/mL; in test [2], over 64 µg/mL. The “fractional inhibitory concentration index (FICI)” value in test [3] is listed as 0.315.

Take `O=C(/C=C/c1ccc(F)cc1)c1ccccc1O`: the MIC80 in test [1] was 32 µg/mL; in test [2] it was over 64 µg/mL. Moreover, in test [3], the “fractional inhibitory concentration index (FICI)” value is 0.315.

On to `CN(C)c1ccc(/C=C/C(=O)c2ccccc2F)cc1`, for which the MIC80 was 8 µg/mL in test [1] and over 64 µg/mL in test [2]. Also, the “fractional inhibitory concentration index (FICI)” value in test [3] is listed as 0.125.

`COc1cccc(O)c1C(=O)/C=C/c1ccc(CO)o1`: the MIC80 was 8 µg/mL in test [1] and over 64 µg/mL in test [2]. Besides, in test [3], the “fractional inhibitory concentration index (FICI)” value was 0.125.

In the case of `O=C(/C=C/c1ccc(Br)cc1)c1c(O)cccc1O`, the values for the MIC80 in test [1] and in test [2] were 16 µg/mL and over 64 µg/mL, respectively. For the same compound, the “fractional inhibitory concentration index (FICI)” value in test [3] was 0.188.

For `O=C(/C=C/c1ccc2c(c1)OCO2)c1ccccc1O`, the figures for the MIC80 in test [1] and in test [2] were 32 µg/mL and over 64 µg/mL, respectively. Further, in test [3], the “fractional inhibitory concentration index (FICI)” value worked out at 0.315.

The values above are taken from ChEMBL document CHEMBL3808297, “The synthesis and synergistic antifungal effects of chalcones against drug resistant Candida albicans” (2016).
